Laboratory results as given in patent publication US8217075B2, “2-amino-2-phenyl-alkanol derivatives, their preparation and pharmaceutical compositions containing them” (Oroxcell, priority 2008, dated 2012).

Assays:
[1] = test system: abdominal pain by irritation and distension of the colon; conditions: rats, from 13.1 mg/kg and at doses of 26.2 mg/kg by subcutaneous route
[2] = test system: formalin-induced short- and long-phase pain; conditions: rat, dose of 39.3 mg/kg by subcutaneous route

CC[C@@](COC(=O)c1cc(OC)c(OC)c(OC)c1)(c1ccccc1)N(C)C(=O)OCc1ccc(OC)cc1 [Example 4] was tested, and the “activity in abdominal pain test” value [1] was “demonstrated activity” and the “short- and long-phase activity” value [2] was “demonstrated short- and long-phase activity”.
